Experiments:
[1] = target: T1, Adenosine receptor A1 (Homo sapiens, UniProt P30542)
T1 sequence (P30542 whole entry): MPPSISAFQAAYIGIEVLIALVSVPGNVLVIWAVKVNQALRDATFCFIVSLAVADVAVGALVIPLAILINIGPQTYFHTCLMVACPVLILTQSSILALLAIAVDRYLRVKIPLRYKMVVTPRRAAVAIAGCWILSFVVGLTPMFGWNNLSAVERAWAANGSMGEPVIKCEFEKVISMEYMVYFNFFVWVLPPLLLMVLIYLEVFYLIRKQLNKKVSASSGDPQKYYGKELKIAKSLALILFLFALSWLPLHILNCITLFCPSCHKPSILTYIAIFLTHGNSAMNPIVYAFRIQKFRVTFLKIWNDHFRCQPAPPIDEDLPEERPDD

[2] = target: T2, Estrogen receptor (Homo sapiens, UniProt P03372)
T2 sequence (P03372 whole entry): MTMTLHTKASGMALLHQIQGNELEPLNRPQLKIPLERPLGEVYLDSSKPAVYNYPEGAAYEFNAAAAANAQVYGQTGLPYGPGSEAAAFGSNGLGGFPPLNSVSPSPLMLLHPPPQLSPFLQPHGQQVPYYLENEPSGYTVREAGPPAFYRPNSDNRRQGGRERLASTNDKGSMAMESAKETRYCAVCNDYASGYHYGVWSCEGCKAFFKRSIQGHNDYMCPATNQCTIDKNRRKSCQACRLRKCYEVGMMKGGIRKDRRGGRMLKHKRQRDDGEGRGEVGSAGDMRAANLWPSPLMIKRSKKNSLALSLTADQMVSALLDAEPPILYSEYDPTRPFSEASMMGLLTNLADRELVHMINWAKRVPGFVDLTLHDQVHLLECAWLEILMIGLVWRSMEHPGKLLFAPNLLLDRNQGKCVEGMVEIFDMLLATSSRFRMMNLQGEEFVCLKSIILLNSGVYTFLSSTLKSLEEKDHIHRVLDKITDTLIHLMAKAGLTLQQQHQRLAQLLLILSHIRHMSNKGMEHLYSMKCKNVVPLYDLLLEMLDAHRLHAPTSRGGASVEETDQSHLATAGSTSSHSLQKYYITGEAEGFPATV

[3] = target: T3, Neuropeptide Y receptor type 2 (Homo sapiens, UniProt P49146)
T3 sequence (P49146 whole entry): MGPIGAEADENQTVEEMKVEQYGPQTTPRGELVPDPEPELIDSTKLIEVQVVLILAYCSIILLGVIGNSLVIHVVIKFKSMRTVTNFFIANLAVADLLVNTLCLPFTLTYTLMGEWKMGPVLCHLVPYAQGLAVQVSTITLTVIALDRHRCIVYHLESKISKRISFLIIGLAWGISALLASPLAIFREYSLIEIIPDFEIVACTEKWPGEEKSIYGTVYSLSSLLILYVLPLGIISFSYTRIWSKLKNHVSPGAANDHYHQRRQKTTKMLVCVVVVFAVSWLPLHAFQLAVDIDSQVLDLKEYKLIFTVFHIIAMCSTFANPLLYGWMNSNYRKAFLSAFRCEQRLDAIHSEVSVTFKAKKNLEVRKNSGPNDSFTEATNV

[4] = target: 5-hydroxytryptamine receptor 2B (Homo sapiens, UniProt P41595)
Chain of 5-hydroxytryptamine receptor 2B (P41595 whole entry): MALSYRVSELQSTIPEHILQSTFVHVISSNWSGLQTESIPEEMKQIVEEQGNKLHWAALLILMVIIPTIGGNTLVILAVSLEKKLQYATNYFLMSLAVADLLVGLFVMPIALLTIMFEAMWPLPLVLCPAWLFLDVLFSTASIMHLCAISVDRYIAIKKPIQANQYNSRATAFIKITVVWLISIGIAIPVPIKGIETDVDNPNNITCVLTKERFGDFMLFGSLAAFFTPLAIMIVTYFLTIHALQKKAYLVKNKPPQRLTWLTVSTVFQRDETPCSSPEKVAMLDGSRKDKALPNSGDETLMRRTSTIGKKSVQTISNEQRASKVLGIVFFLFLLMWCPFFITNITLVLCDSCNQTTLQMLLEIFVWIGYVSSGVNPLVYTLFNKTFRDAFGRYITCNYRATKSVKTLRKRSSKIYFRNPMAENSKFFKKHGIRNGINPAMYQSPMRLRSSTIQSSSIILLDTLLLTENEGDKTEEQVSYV

[5] = target: Histamine H2 receptor (Homo sapiens, UniProt P25021)
Chain of Histamine H2 receptor (P25021 whole entry): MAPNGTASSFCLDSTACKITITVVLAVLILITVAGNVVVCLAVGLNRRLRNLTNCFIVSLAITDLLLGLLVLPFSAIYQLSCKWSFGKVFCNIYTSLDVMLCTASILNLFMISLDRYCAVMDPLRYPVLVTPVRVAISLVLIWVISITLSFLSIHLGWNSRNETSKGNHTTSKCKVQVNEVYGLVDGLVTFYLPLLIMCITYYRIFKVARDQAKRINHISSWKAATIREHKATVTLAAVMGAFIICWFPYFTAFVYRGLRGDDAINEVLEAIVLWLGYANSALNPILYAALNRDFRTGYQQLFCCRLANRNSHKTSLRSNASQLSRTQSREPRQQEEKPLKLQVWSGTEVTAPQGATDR

[6] = target: T4, Corticotropin-releasing factor receptor 1 (Homo sapiens, UniProt P34998)
T4 sequence (P34998 whole entry): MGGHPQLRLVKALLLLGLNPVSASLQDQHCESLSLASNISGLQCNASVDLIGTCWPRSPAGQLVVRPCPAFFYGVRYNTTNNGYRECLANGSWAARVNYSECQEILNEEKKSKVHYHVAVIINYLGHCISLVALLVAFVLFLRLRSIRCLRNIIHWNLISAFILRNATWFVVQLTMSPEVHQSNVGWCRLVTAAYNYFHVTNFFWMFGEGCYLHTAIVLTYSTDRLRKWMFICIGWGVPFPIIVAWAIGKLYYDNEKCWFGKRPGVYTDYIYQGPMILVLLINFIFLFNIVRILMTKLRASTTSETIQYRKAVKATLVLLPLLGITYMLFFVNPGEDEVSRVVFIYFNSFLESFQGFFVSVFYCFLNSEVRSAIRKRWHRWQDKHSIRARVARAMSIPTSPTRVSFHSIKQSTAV
Further: assay procedure not described here.

Row | Compound | AC50 [1] [µM] | AC50 [2] [µM] | AC50 [3] [µM] | AC50 [4] [µM] | AC50 [5] [µM] | AC50 [6] [µM]
1 | COc1cc2nc(N3CCN(C(=O)C4CCCO4)CC3)nc(N)c2cc1OC (stereo not given) [TERAZOSIN] | > 30 | > 30 | > 30 | > 10 | > 10 | > 30
2 | COc1ccccc1OCCNCC(O)COc1cccc2[nH]c3ccccc3c12 (stereo not given) [CARVEDILOL] |  | > 30 | > 30 | 0.0101 | 1.56 | > 30
3 | CCCN(CCC)C(=O)Cc1c(-c2ccc(Cl)cc2)nc2ccc(Cl)cn12 [ALPIDEM] | 14.4 | > 30 | > 10 | > 10 | > 10 | 
4 | CC(C)Cc1ccc(C(C)C(=O)O)cc1 (stereo not given) [IBUPROFEN] |  | 21.3 | > 30 | > 10 | > 10 | > 30
5 | C=CC[C@@H]1/C=C(\C)C[C@H](C)C[C@H](OC)[C@H]2O[C@@](O)(C(=O)C(=O)N3CCCC[C@H]3C(=O)O[C@H](/C(C)=C/[C@@H]3CC[C@@H](O)[C@H](OC)C3)[C@H](C)[C@@H](O)CC1=O)[C@H](C)C[C@@H]2OC [TACROLIMUS ANHYDROUS] |  | > 30 | > 30 | > 10 | > 10 | > 30
6 | Cc1onc(-c2ccccc2)c1-c1ccc(S(N)(=O)=O)cc1 [VALDECOXIB] |  |  | > 30 | > 10 | > 10 | > 30
7 | C[C@H]1c2cccc(O)c2C(=O)C2=C(O)[C@]3(O)C(=O)C(C(N)=O)=C(O)[C@@H](N(C)C)[C@@H]3[C@@H](O)[C@@H]21 [DOXYCYCLINE] |  |  | > 30 | > 10 | > 10 | > 30
8 | COc1ccccc1Oc1c(NS(=O)(=O)c2ccc(C(C)(C)C)cc2)nc(-c2ncccn2)nc1OCCO [BOSENTAN] |  | > 30 | > 30 | > 10 | > 10 | > 30
9 | Nc1ccc(S(=O)(=O)Nc2nccs2)cc1 [SULFATHIAZOLE] |  | > 30 | > 30 | > 10 | > 10 | > 30
10 | N[C@@H](CC(=O)N1CCn2c(nnc2C(F)(F)F)C1)Cc1cc(F)c(F)cc1F [SITAGLIPTIN] |  |  | > 10 | > 10 | > 10 | 
11 | CO[C@H]1/C=C/O[C@@]2(C)Oc3c(C)c(O)c4c(O)c(c(/C=N/N5CCN(C)CC5)c(O)c4c3C2=O)NC(=O)/C(C)=C\C=C\[C@H](C)[C@H](O)[C@@H](C)[C@@H](O)[C@@H](C)[C@H](OC(C)=O)[C@@H]1C [RIFAMPIN] |  |  | 21.6 | > 10 | > 10 | > 30
12 | CN(C)CCc1c[nH]c2ccc(Cn3cncn3)cc12 [RIZATRIPTAN] |  |  | > 30 | 12 | > 10 | > 30

Source: ChEMBL document CHEMBL5291721, “A preclinical secondary pharmacology resource illuminates target-adverse drug reaction associations of marketed drugs” (Nat Commun, 2023)
